Read-outs that look alike come from different tables or passages of the source. Blank lines part the entries; values can stand above or below the molecule they belong to.
Legend:
PLK1 PBD (367-603) = target: T1, PLK1 PBD (367-603) (Homo sapiens, UniProt P53350); assay: Fluorescence polarization assay, PLK1 PBD; assay type: binding
T1 construct: PLK1 PBD (367-603); purchased BPS Biosciences Inc. (San Diego, Calif.)
Method: (§1) Fluorescence Polarization Assay
(§2) Materials were dissolved in DMSO (10 mM) and diluted from 10 nM to 600 μM (maximum of 6% DMSO tolerance in the assay). […] Incubation was carried out at room temperature for 45 minutes. Fluorescence was measured using a DTX 880 plate reader and Multimode Analysis software (Beckman Coulter, Brea, Calif.). […] Each data point was performed in triplicate for every experiment, and experiments were performed at least three times. An IC50 value for each compound was calculated from linear regression analysis of the plots.

PC3 cells [1] = assay: Cell cycle analysis and BrdU pulse labeling in PC3 cells, FIG. 9-11; assay type: cell-based
Method: (§3) Analysis of Cell Cycle Progression by FACS
(§4) Serum-Starved Synchronization
(§5) Cells were synchronized in G1 by serum starvation. Briefly, exponentially growing cells were plated overnight. Media (DMEM, 10% FBS, 1% Pen. Strep.) was then removed and replaced with media containing no FBS. Cells were starved for 72 hours then treated for 24 hours with inhibitor. Following treatment, cells were harvested and processed for endpoint experimental analysis.
(§6) Ethanol fixative was removed by centrifugation and the cells were washed with 1 mL ice-cold PBS/1% BSA. Cells were denatured by resuspending in 0.2 mg/mL pepsin in 2N HCl and incubated in 37° C. water bath for 15 minutes. Hydrolysis was then terminated by adding 1 M Invitrogen™ Novex® Tris-Glycine. Cells were then washed with PBS/1% BSA then the primary anti-BrdU antibody (1:100 dilution in TBFP; 0.5% Tween-20, 1% BSA, 1% FBS, PBS) was added and cells were incubated for 25 minutes in the dark, at room temperature. […] Cells were washed once more with PBS/1% BSA and re-suspended in DAPI for 30 minutes before being analyzed by flow cytometry.
The PLK1 PBD-inhibitors were analyzed further by cell cycle analysis in PC3 cells (FIG. 9). […] To quantify the percentage of cells actively proliferating (synthesizing their DNA) or arrested Bromodeoxyuridine (BrdU) pulse labeling was carried out and analyzed by flow cytometry.

[2] = test system: HeLa cervical cancer cells; assay: Cell viability assay (MTT), HeLa; assay type: cell-based; conditions: read-out: HeLa
Method: HeLa cervical cancer cells were obtained from ATCC (Manassas, Va.). […] Cells were maintained in DMEM (Invitrogen™, Carlsebad, Calif.) supplemented with 10% FBS or Corning© Nu-Serum™ (BD™ Biosciences, Franklin Lakes, N.J.) and 1% penicillin/streptomycin (Invitrogen™) in a humidified incubator and 5% CO2 at 37° C.
(§7) Exponentially growing cells were plated in 96-well dishes. Dose response curves were used to treat cells for 72 hours with inhibitors. Following the three-day treatment, cell viability was measured using the MTT (3-(4,5-dimethylthiazol-2-yl)-2,5-diphenyltetrazolium bromide) colorimetric assay. Cells were incubated for 3 hours with MTT allowing viable cells to metabolize the tetrazolium dye to a purple colored solution.

[3] = test system: PTEN deficient prostate cancer (PC3) cells; assay: Cell viability assay (MTT), PC3; assay type: cell-based; conditions: read-out: PCC-3
Method: PC3 prostate cancer cells were maintained in DMEM (Invitrogen™, Carlsebad, Calif.) supplemented with 10% FBS or Corning® Nu-Serum™ (BD™ Biosciences, Franklin Lakes, N.J.) and 1% penicillin/streptomycin (Invitrogen™) in a humidified incubator and 5% C02 at 37° C.
as §7

[4] = test system: KRAS mutant lung cancer (A-549) cells; assay: Cell viability assay (MTT), A-549; assay type: cell-based; conditions: 72 hours
Method: A-549 lung cancer cells were maintained in Hams F-12 1× with glutamine (Corning® Cellgro, Manassas, Va.), and supplemented with 10% FBS or Corning® Nu-Serum™ (BD™ Biosciences, Franklin Lakes, N.J.) and 1% penicillin/streptomycin (Invitrogen™) in a humidified incubator and 5% C02 at 37° C.
as §7, with “solution. Absorbance measurements (595 nm) were quantified using a DTX 880 plate reader and IC50 values were generated for FLIPs.” for “solution.”

[5] = test system: HCT-116 (p53−/−) colon cancer cells; assay: Cell viability assay (MTT), HCT116 p53-/-; assay type: cell-based; conditions: 72 hours
Method: HCT-116 (p53+/+ and −/−) colon cancer cells were maintained DMEM (Invitrogen™, Carlsebad, Calif.) supplemented with 10% FBS or Nu-serum (BD™ Biosciences, Franklin Lakes, N.J.) and 1% penicillin/streptomycin (Invitrogen™) in a humidified incubator and 5% C02 at 37° C.
as §7, with “solution. Absorbance measurements (595 nm) were quantified using a DTX 880 plate reader and IC50 values were generated for FLIPs.” for “solution.”

PLK3 PBD (335-646) = target: T2, PLK3 PBD (335-646) (Homo sapiens, UniProt Q9H4B4); assay: Fluorescence polarization assay, PLK3 PBD; conditions: PLK3 PBD binding
T2 construct: PLK3 PBD (335-646); purchased BPS Biosciences Inc. (San Diego, Calif.)
T2 sequence (Q9H4B4 335-646): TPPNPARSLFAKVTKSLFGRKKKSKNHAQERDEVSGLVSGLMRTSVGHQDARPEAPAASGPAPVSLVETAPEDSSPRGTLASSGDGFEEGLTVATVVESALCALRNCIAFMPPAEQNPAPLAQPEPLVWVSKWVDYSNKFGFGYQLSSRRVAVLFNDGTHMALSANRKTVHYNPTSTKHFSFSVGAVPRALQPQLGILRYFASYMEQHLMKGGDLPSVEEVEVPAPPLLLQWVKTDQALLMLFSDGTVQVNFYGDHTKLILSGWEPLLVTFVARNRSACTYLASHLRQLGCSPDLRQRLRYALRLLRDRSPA
Method: as §1, §2

PC3 cells [6] = assay: Cell cycle analysis after release (DAPI/BrdU FACS), FIG. 3; assay type: cell-based
Method: PLK specificity can be useful in therapeutic applications, as well as in research-oriented application.
as §3, §4, §5, §6

[7] = Cell cycle analysis and caspase apoptosis assay; assay type: cell-based
Excerpt: Disclosed small molecule inhibitors can also encourage apoptosis.

[8] = Cytotoxicity, cell viability and apoptosis data, FIG. 12; assay type: cell-based; conditions: average from various assays
Excerpt: For instance, FIG. 12 presents cytotoxicity, cell viability, and apoptosis data for cells treated with inhibitor SCCP ID No: 6037. […] The data of FIG. 13 relates to SCCP ID No: 5914 and the data of FIG. 14 relates to SCCP ID No: 5915.

[9] = PLK1 PBD binding, fluorescence polarization, read-out: PLK1 IC50
[10] = Table 1, fluorescence polarization, read-out: PLK1 PBD IC50

T1 sequence (P53350 367-603): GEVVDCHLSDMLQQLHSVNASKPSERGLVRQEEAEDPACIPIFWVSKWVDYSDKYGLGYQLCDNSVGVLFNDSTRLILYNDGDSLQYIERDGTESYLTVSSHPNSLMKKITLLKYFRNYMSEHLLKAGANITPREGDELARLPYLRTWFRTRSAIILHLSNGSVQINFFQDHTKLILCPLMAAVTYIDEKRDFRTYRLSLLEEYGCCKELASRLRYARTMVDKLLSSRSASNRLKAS

- IC50 (PLK1 PBD (367-603); [9]): 5.89 ± 1.25 µM
Compound: CCCCCCCCc1ccc(C(=O)Nc2ccc(OC)cc2C(=O)O)cc1 [SCCP ID No. 5935]
- cell cycle phenotype (in words) (PC3 cells [1]; 15 μM): G1 delay or arrest

- IC50 (PLK1 PBD (367-603); [9]): 30.6 ± 3.2 µM
Compound: CCCCCCCCc1ccc(C(=O)Nc2cc(F)cc(F)c2C(=O)O)cc1 [SCCP ID No. 5938]

- IC50 (PLK1 PBD (367-603); [9]): 6.05 ± 1.9 µM
Compound: CCCCCCCCc1ccc(C(=O)Nc2cccc([N+](=O)[O-])c2C(=O)O)cc1 [SCCP ID No. 5939]

- IC50 (PLK1 PBD (367-603); [9]): > 600 µM
- binding to the PLK1 PBD (in words) (PLK1 PBD (367-603); fluorescence polarization): No binding was observed
Compound: CCCCCCc1ccc(C(=O)Nc2ccccc2OP(=O)(O)O)cc1 [SCCP ID No. 5940]

- IC50 (PLK1 PBD (367-603); [9]): > 600 µM
- binding to the PLK1 PBD (in words) (PLK1 PBD (367-603); fluorescence polarization): No binding was observed
Compound: CCCCCCc1ccc(C(=O)Nc2ccccc2O)cc1 [SCCP ID No. 5943]

- IC50 ([2]; MTT, 72 hours): 20.1 ± 3.1 µM
- IC50 ([3]; MTT, 72 hours): 27.9 ± 2.6 µM
- IC50 [4]: 13.3 ± 0.8 µM
- IC50 [5]: 24.9 ± 2 µM
Compound: CCCCCCCCc1ccc(C(=O)Nc2cccc(C(F)(F)F)c2C(=O)O)cc1 [SCCP ID No. 5945]

- IC50 ([2]; MTT, 72 hours): 33.6 ± 2.6 µM
- IC50 ([3]; MTT, 72 hours): 34.2 ± 2.5 µM
Compound: CCCCCCCCc1ccc(C(=O)Nc2cccc(O)c2C(=O)O)cc1 [SCCP ID No. 5946]

- IC50 (PLK1 PBD (367-603); [9]): 9.57 ± 2.03 µM
Compound: CCCCCCCCc1ccc(CNc2ccccc2C(=O)O)cc1 [SCCP ID No. 5953]

- IC50 (PLK1 PBD (367-603); [9]): > 600 µM
- binding to the PLK1 PBD (in words) (PLK1 PBD (367-603); fluorescence polarization): undetectable
- IC50 (PLK3 PBD (335-646)): 157 µM
Compound: CCCCCCCCc1ccc(CNc2ccc(C)cc2C(=O)O)cc1 [SCCP ID No. 5961]

- IC50 (PLK1 PBD (367-603); [10]): > 200 µM
Compound: CCCCCCCCc1ccc(C(=O)NCCC(=O)O)cc1 [SCCP ID No. 5975]

- IC50 (PLK1 PBD (367-603); [10]): 343 to 450 µM
Compound: CCCCCCCCc1ccc(C(=O)NCC(C)C(=O)O)cc1 (stereo not drawn) [SCCP ID No. 5976]

Compound: CCCCCCCCCCCCc1ccc(C(=O)Nc2ccccc2C(=O)O)cc1 [SCCP ID No. 6037]
- PLK1 versus PLK3 specificity (in words) (PLK1 PBD (367-603); PBD binding): selectivity for PLK3
- IC50 (PLK1 PBD (367-603); [9]): 5.97 ± 0.38 µM
- IC50 ([2]; Homo sapiens, HeLa, 72 h): 14 ± 3.5 µM
- IC50 ([3]; Homo sapiens, PC-3, 72 h): 9.4 ± 0.8 µM
- G2/M by DAPI (PC3 cells [6]; 5 μM): 7%
- BrdU+ (PC3 cells [6]; 5 μM, FIG. 3 2nd panel): 27%
- G1 by DAPI (PC3 cells [6]; 5 μM, FIG. 3 2nd panel): 77%
- S by DAPI (PC3 cells [6]; 5 μM, FIG. 3 2nd panel): 15%
- G2/M by DAPI (PC3 cells [6]; 20 μM, FIG. 3 3rd panel): 28%
- cells replicating their DNA (BrdU labeling) (PC3 cells [1]; 5 μM): 75.7%
- BrdU+ (PC3 cells [1]; 15 μM): 1.9%
- cell cycle phenotype (in words) (PC3 cells [1]; 15 μM): G1 arrest
- cell cycle phenotype (in words) (PC3 cells [1]; both the lower (5 μM) and higher (15 μM) dose, FIG. 11): G1 accumulation
- levels of apoptosis (in words) [7]: high levels of apoptosis
- cell viability [8]: 15.6 ± 3.4 µM
- cytotoxicity [8]: 14.8 ± 3.6 µM

Reference: patent publication US11597737B2, “Small molecule inhibitors selective for polo-like kinase proteins” (UNIVERSITY OF SOUTH CAROLINA, priority 2016, dated 2023)
